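In this assay, cells in 96-well plates receive the compound at five concentrations for 48 hours. Endpoints are linearly interpolated between the surrounding concentrations. Abbreviation: GI50, concentration required for 50% inhibition of growth.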 The source made the active and inactive calls. No stated cut-off is given here; in the data, active = GI50 up to about 1.1 µM and inactive = higher.

Among the test systems are KM-20L2; CCRF-CEM; HCT-15; HT-29; NCI-H226; HCC 2998; MOLT-4; UACC-257; LOX IMVI; OVCAR-8; A549; Malme-3M; SF-539; NCI-H23; OVCAR-5; SNB-19; SK-MEL-5; RXF 393; M14; MCF7.
Assay in all cases: NCI anticancer screen, dose series, 48 h

On to `O=C(Nc1cccc2ccccc12)Oc1ccccc1C1CCCCC1`, for which the GI50 with KM-20L2 is 20.9 µM (inactive); with CCRF-CEM, 15 µM (inactive); with HCT-15, 17.2 µM; with HT-29, 18.2 µM (inactive); with NCI-H226, 18.2 µM (inactive); in the test with HCC 2998, 18.5 µM (inactive). Moreover, the GI50 in the test with MOLT-4 is 15.9 µM (inactive); with UACC-257, 15.5 µM (inactive); in the test on LOX IMVI, 16.3 µM (inactive); with OVCAR-8, 15.9 µM (inactive); in the test on A549 it was 21.4 µM (inactive); with Malme-3M it was 17.7 µM (inactive). Moreover, the GI50 with SF-539 is 17.5 µM (inactive); with NCI-H23 it was 17.9 µM (inactive); in the test on OVCAR-5 it was 17.3 µM (inactive); in the test with SNB-19 it was 53.6 µM (inactive); in the test with SK-MEL-5, 15.5 µM (inactive); in the test on RXF 393, 15 µM (inactive). In the test with M14, the GI50 was 18.1 µM (inactive).

For the compound `C=C(CN(C)C)C(=O)c1ccc(OC2OC(COC(C)=O)C(OC(C)=O)C(OC(C)=O)C2OC(C)=O)cc1` (stereo unspecified), the GI50 is 17.4 µM (inactive) with KM-20L2; 0.185 µM (active) with CCRF-CEM; 3.03 µM in the test with HCT-15; 2.75 µM (inactive) in the test on HT-29; 7.36 µM (inactive) in the test on NCI-H226; 18.1 µM (inactive) in the test on HCC 2998. The GI50 in the test on MOLT-4 was 0.54 µM (active); with UACC-257, 2.34 µM (inactive); with LOX IMVI it was 3.35 µM (inactive); in the test on OVCAR-8, 4.21 µM (inactive); with A549 it was 21.2 µM (inactive); in the test on Malme-3M, 1.96 µM (inactive). The GI50 in the test on SF-539 was 10.1 µM (inactive); with NCI-H23 it was 8.89 µM (inactive); in the test on OVCAR-5 it was 16.5 µM (inactive); in the test with SNB-19, 19.8 µM (inactive); with MCF7 it was 1.77 µM (inactive); in the test on SK-MEL-5, 6.37 µM (inactive). The GI50 was 1.76 µM (inactive) in the test on RXF 393 and 2.4 µM (inactive) in the test with M14.

Regarding `CC1OC(CO)(n2cnc3c(N)ncnc32)C(O)C1O` (stereo unspecified), the GI50 with KM-20L2 is > 100 µM (inactive); in the test on CCRF-CEM, > 100 µM (inactive); with HCT-15, greater than 100 µM; in the test on HT-29, > 100 µM (inactive); in the test with NCI-H226 it was > 100 µM (inactive); with HCC 2998 it was > 100 µM (inactive). Further, the GI50 in the test with MOLT-4, in the test on UACC-257, in the test on LOX IMVI, with OVCAR-8, in the test with A549 and with Malme-3M was > 100 µM (inactive) throughout. Besides, the GI50 with SF-539, in the test on NCI-H23, in the test with OVCAR-5, with SNB-19, in the test with MCF7 and in the test on SK-MEL-5 was > 100 µM (inactive) in each case. Also, the GI50 in the test on RXF 393 was > 100 µM (inactive).

In the case of `C#CC[N+](CCO)(CCO)CCCCCCCCCCCCCCCCCC`, the GI50 with KM-20L2 was 7.1 µM (inactive); with CCRF-CEM, 2.03 µM (inactive); with HCT-15, 15.3 µM; in the test with HT-29, 4.59 µM (inactive); with NCI-H226 it was 12.6 µM (inactive); in the test on HCC 2998 it was 11.5 µM (inactive). Moreover, the GI50 in the test with MOLT-4 was 2.91 µM (inactive); with UACC-257, 15.8 µM (inactive); with LOX IMVI it was 4.81 µM (inactive); in the test with OVCAR-8, 16.1 µM (inactive); with A549 it was 15.7 µM (inactive); in the test with Malme-3M it was 18.4 µM (inactive). The GI50 was 11.4 µM (inactive) in the test with SF-539; 13.8 µM (inactive) in the test on NCI-H23; 14.8 µM (inactive) with OVCAR-5; 5.92 µM (inactive) in the test with SNB-19; 14.8 µM (inactive) with MCF7; 15.7 µM (inactive) with SK-MEL-5. Also, the GI50 in the test on RXF 393 was 2.48 µM (inactive).

In the case of `CCOc1ccc2nc(NC(=O)C(=O)C(C(=O)c3ccccc3F)C3OC(=O)c4ccccc43)sc2c1` (stereo unspecified), the GI50 with KM-20L2 is 27.9 µM (inactive); in the test on CCRF-CEM, 12.3 µM (inactive); with HCT-15 it was 14.5 µM; in the test with NCI-H226 it was 5.01 µM (inactive); in the test with HCC 2998 it was 15.9 µM (inactive); with MOLT-4, 10.3 µM (inactive). Further, the GI50 in the test on UACC-257 is 41.3 µM (inactive); in the test on OVCAR-8, 16 µM (inactive); in the test with A549, 31.6 µM (inactive); with SF-539, 10.3 µM (inactive); in the test with SNB-19, 14.5 µM (inactive); in the test on SK-MEL-5, 15.9 µM (inactive). Besides, the figures for the GI50 in the test on RXF 393 and with M14 were 21.5 µM (inactive) and 16.5 µM (inactive), respectively.

In the case of `C=C(/C=C/C=C(\C)CCC=C(C)C)[C@@H]1CC[C@]2([C@H](CCCO)/C(=C(/C)C=O)CC[C@]2(C)O)[C@@H]1O`, the GI50 is 29.3 µM (inactive) with KM-20L2; 15.8 µM (inactive) in the test on CCRF-CEM; 19.4 µM in the test on HCT-15; 15.8 µM (inactive) with HT-29; 24 µM (inactive) with NCI-H226; 20.9 µM (inactive) in the test on HCC 2998. For the same compound, the GI50 in the test on MOLT-4 was 7.62 µM (inactive); in the test on UACC-257, 22.6 µM (inactive); with LOX IMVI, 14.7 µM (inactive); with OVCAR-8, 20.6 µM (inactive); with A549 it was 13.3 µM (inactive); in the test with Malme-3M, 11.8 µM (inactive). Further, the GI50 with SF-539 is 12.6 µM (inactive); with NCI-H23, 19.5 µM (inactive); in the test with OVCAR-5 it was 61.8 µM (inactive); in the test with SNB-19 it was 22.2 µM (inactive); in the test with SK-MEL-5, 22.6 µM (inactive); in the test with RXF 393, 22.6 µM (inactive). In the test on M14, the GI50 was 21.7 µM (inactive).

For `CC(C)(C)OC(=O)NC1CCC(C(C)(C)C)CC1` (stereo unspecified), the GI50 was 37.9 µM (inactive) in the test with KM-20L2; 36.1 µM (inactive) with CCRF-CEM; greater than 79.6 µM with HCT-15; 22.3 µM (inactive) in the test with HT-29; 26.4 µM (inactive) in the test with NCI-H226; > 87.1 µM (inactive) with HCC 2998. Besides, the GI50 with MOLT-4 is 23.9 µM (inactive); with UACC-257, 19.5 µM (inactive); with LOX IMVI it was 40.9 µM (inactive); in the test with OVCAR-8 it was > 89.7 µM (inactive); in the test on A549 it was 43.8 µM (inactive); in the test on Malme-3M, 33.2 µM (inactive). Moreover, the GI50 in the test with SF-539 is > 100 µM (inactive); in the test with NCI-H23, > 83 µM (inactive); in the test on OVCAR-5 it was > 100 µM (inactive); in the test on SNB-19, 95.7 µM (inactive); in the test on MCF7, 44.5 µM (inactive); in the test on SK-MEL-5, 27.7 µM (inactive). Also, in the test with RXF 393, the GI50 was 31.3 µM (inactive).

`CC(=O)OC1C(O)C(C)OC(OC(=O)C2CCC3C(C2)OC2(CC(OC(=O)/C=C/c4ccccc4)C(C)CO2)C32CO2)C1OC1OC(C)C(O)C(O)C1O` (stereo unspecified): the GI50 with KM-20L2 was 0.0425 µM (active); with CCRF-CEM, 0.0342 µM (active); in the test with HCT-15, 3.96 µM; with HT-29, 0.0419 µM (active); in the test with NCI-H226, 0.0435 µM (active); with HCC 2998, 0.0373 µM (active). The GI50 in the test on MOLT-4 was 0.0337 µM (active); in the test with UACC-257 it was 0.0325 µM (active); with LOX IMVI, 0.115 µM (active); in the test with OVCAR-8, 0.0789 µM (active); in the test on A549, 0.118 µM (active); with Malme-3M, 0.0378 µM (active). Also, the GI50 in the test with SF-539 was 0.0448 µM (active); in the test with NCI-H23 it was 0.0467 µM (active); in the test with OVCAR-5, 0.091 µM (active); with SNB-19, 0.0399 µM (active); with MCF7 it was 0.0325 µM (active); with SK-MEL-5 it was 0.0332 µM (active). Moreover, the GI50 in the test with RXF 393 was 0.0644 µM (active).

Consider `[O-][S+]1[C@H](c2ccccc2)c2c(-c3ccccc3)sc(-c3ccccc3)c2[C@@H]1c1ccccc1` (stereo partly specified), for which the GI50 in the test on KM-20L2 is 5.79 µM (inactive); with CCRF-CEM, 89.7 µM (inactive); in the test with HCT-15 it was 7.1 µM; with HT-29 it was 41 µM (inactive); in the test with HCC 2998 it was > 100 µM (inactive); in the test with MOLT-4, 4.75 µM (inactive). The GI50 is > 100 µM (inactive) in the test with UACC-257; 94.8 µM (inactive) with LOX IMVI; 8.75 µM (inactive) in the test on OVCAR-8; 10.8 µM (inactive) in the test with A549; 23.4 µM (inactive) in the test on Malme-3M; > 100 µM (inactive) with SF-539. Besides, the GI50 in the test with NCI-H23 was 6.55 µM (inactive); in the test with OVCAR-5, 3.66 µM (inactive); in the test on SNB-19, 77.1 µM (inactive); in the test on SK-MEL-5 it was 6.15 µM (inactive); in the test with RXF 393, 23.1 µM (inactive); in the test on M14, 85.9 µM (inactive).

Values taken from ChEMBL document CHEMBL1201862, “PubChem BioAssay data set” (2004).
